Experiments:
Format in all cases: in vivo
Parameters in all cases: key: 1=total damage; 9=no action
Abutilon [1] = assay: Pre-emergence herbicidal action; settings: 250 g a.i./ha (500 litres water/ha), sprayed immediately after sowing, evaluated after 3 weeks; scale of nine ratings, 1 to 4 = good to very good action
Source text: (§1) Herbicidal Action Prior to Emergence of the Plants (Pre-Emergence Action) Monocotyledonous and dicotyledonous test plants are sown in standard soil in plastic pots. Immediately after sowing, an aqueous suspension (prepared from a 25% wettable powder (Example F3, b) according to WO 97/34485) or an emulsion (prepared from a 25% emulsifiable concentrate (Example F1, c)) of the test compounds is applied by spraying at a rate of application corresponding to 250 […]). The test plants are then cultivated in a greenhouse under optimum conditions.

Amarantus [2] = assay: Pre-emergence herbicidal action; settings: 250 g a.i./ha (500 litres water/ha), sprayed immediately after sowing, evaluated after 3 weeks; scale of nine ratings, 1 to 4 = good to very good action
Source text: as §1

Brachiaria [3] = assay: Pre-emergence herbicidal action; settings: 250 g a.i./ha (500 litres water/ha), sprayed immediately after sowing, evaluated after 3 weeks; scale of nine ratings, 1 to 4 = good to very good action
Source text: as §1

Chenopodium [4] = assay: Pre-emergence herbicidal action; settings: 250 g a.i./ha (500 litres water/ha), sprayed immediately after sowing, evaluated after 3 weeks; scale of nine ratings, 1 to 4 = good to very good action
Source text: as §1

Digitaria [5] = assay: Pre-emergence herbicidal action; settings: 250 g a.i./ha (500 litres water/ha), sprayed immediately after sowing, evaluated after 3 weeks; scale of nine ratings, 1 to 4 = good to very good action
Source text: as §1

Echinochloa = assay: Pre-emergence herbicidal action; settings: 250 g a.i./ha (500 litres water/ha), sprayed immediately after sowing, evaluated after 3 weeks; scale of nine ratings, 1 to 4 = good to very good action
Source text: as §1

Euphoria = assay: Pre-emergence herbicidal action; settings: 250 g a.i./ha (500 litres water/ha), sprayed immediately after sowing, evaluated after 3 weeks; scale of nine ratings, 1 to 4 = good to very good action
Source text: as §1

Panicum [6] = assay: Pre-emergence herbicidal action; settings: 250 g a.i./ha (500 litres water/ha), sprayed immediately after sowing, evaluated after 3 weeks; scale of nine ratings, 1 to 4 = good to very good action
Source text: as §1

Abutilon [7] = assay: Post-emergence herbicidal action; settings: 250 g a.i./ha (500 litres water/ha), sprayed at 4- to 6-leaf stage, evaluated after about 18 days; scale of nine ratings, 1 to 4 = good to very good action
Source text: (§2) Post-Emergence Herbicidal Action
(§3) Monocotyledonous and dicotyledonous test plants are raised in a greenhouse in plastic pots containing standard soil and at the 4- to 6-leaf stage are sprayed with an aqueous suspension of the test compounds of formula I (prepared from a 25% wettable powder (Example F3, b) according to WO 97/34485) or with an emulsion of the test compounds of formula I (prepared from a 25% emulsifiable concentrate (Example F1, c) according to WO 97/34485) at a rate of application corresponding to 250 g a.i./ha (500 litres water/ha). The test plants are then grown on in the greenhouse under optimum conditions. After a test duration of about 18 days, the test is evaluated in accordance with a scale of nine ratings (1=total damage, 9=no action). Ratings of from 1 to 4 (especially from 1 to 3) indicate good to very good herbicidal action.

Amarantus [8] = assay: Post-emergence herbicidal action; settings: 250 g a.i./ha (500 litres water/ha), sprayed at 4- to 6-leaf stage, evaluated after about 18 days; scale of nine ratings, 1 to 4 = good to very good action
Source text: as §2, §3

Brachiaria [9] = assay: Post-emergence herbicidal action; settings: 250 g a.i./ha (500 litres water/ha), sprayed at 4- to 6-leaf stage, evaluated after about 18 days; scale of nine ratings, 1 to 4 = good to very good action
Source text: as §2, §3

Chenopodium [10] = assay: Post-emergence herbicidal action; settings: 250 g a.i./ha (500 litres water/ha), sprayed at 4- to 6-leaf stage, evaluated after about 18 days; scale of nine ratings, 1 to 4 = good to very good action
Source text: as §2, §3

Digitaria [11] = assay: Post-emergence herbicidal action; settings: 250 g a.i./ha (500 litres water/ha), sprayed at 4- to 6-leaf stage, evaluated after about 18 days; scale of nine ratings, 1 to 4 = good to very good action
Source text: as §2, §3

Panicum [12] = assay: Post-emergence herbicidal action; settings: 250 g a.i./ha (500 litres water/ha), sprayed at 4- to 6-leaf stage, evaluated after about 18 days; scale of nine ratings, 1 to 4 = good to very good action
Source text: as §2, §3

Setaria = assay: Post-emergence herbicidal action; settings: 250 g a.i./ha (500 litres water/ha), sprayed at 4- to 6-leaf stage, evaluated after about 18 days; scale of nine ratings, 1 to 4 = good to very good action
Source text: as §2, §3

Stellaria = assay: Post-emergence herbicidal action; settings: 250 g a.i./ha (500 litres water/ha), sprayed at 4- to 6-leaf stage, evaluated after about 18 days; scale of nine ratings, 1 to 4 = good to very good action
Source text: as §2, §3

Structure (SMILES) | Pre-emergence action, rating, Abutilon (Abutilon [1]) | Pre-emergence action, rating, Amarantus (Amarantus [2]) | Pre-emergence action, rating, Brachiaria (Brachiaria [3]) | Pre-emergence action, rating, Chenopodium (Chenopodium [4]) | Pre-emergence action, rating, Digitaria (Digitaria [5]) | Pre-emergence action, rating, Echinochloa (Echinochloa) | Pre-emergence action, rating, Euphoria (Euphoria) | Pre-emergence action, rating, Panicum (Panicum [6]) | Post-emergence action, rating, Abutilon (Abutilon [7]) | Post-emergence action, rating, Amarantus (Amarantus [8]) | Post-emergence action, rating, Brachiaria (Brachiaria [9]) | Post-emergence action, rating, Chenopodium (Chenopodium [10]) | Post-emergence action, rating, Digitaria (Digitaria [11]) | Post-emergence action, rating, Panicum (Panicum [12]) | Post-emergence action, rating, Setaria (Setaria) | Post-emergence action, rating, Stellaria (Stellaria)
CSC1=C(C(=O)c2ccc(C(F)(F)F)nc2C)C(=NS(=O)(=O)c2cccnc2F)C(C)(C)C(=O)C1(C)C [1.078, N-[3-methylthio-5-oxo-4,4,6,6-tetramethyl-2-(2-methyl-6-trifluoromethyl-pyridine-3-carbonyl)-cyclohex-2-en-ylidene]-3-(2′-fluoropyridyl)sulfonamide] | 1 | 1 | 2 | 1 | 1 | 1 | 2 | 1 | 1 | 2 | 3 | 1 | 1 | 1 | 2 | 3
Cc1nc(C(F)(F)F)ccc1C(=O)C1=C(Cl)C(C)(C)C(=O)C(C)(C)C1=NS(=O)(=O)c1ccccc1 [1.027] | 1 | 1 | 1 | 1 | 1 | 1 | 1 | 1 | 1 | 2 | 2 | 1 | 2 | 2 | 1 | 1
Cc1nc(C(F)(F)F)ccc1C(=O)C1=C(Cl)C(C)(C)C(=O)C(C)(C)C1=NS(=O)(=O)c1cccnc1F [1.026, N-[3-chloro-5-oxo-4,4,6,6-tetramethyl-2-(2-methyl-6-trifluoromethyl-pyridine-3-carbonyl)-cyclohex-2-en-ylidene]-3-(2′-fluoropyridyl)sulfonamide] | 1 | 1 | 1 | 1 | 1 | 1 | 2 | 1 | 1 | 1 | 2 | 1 | 1 | 1 | 1 | 2
C=CS(=O)(=O)N=C1C(C(=O)c2ccc(C(F)(F)F)nc2C)=C(Cl)C(C)(C)C(=O)C1(C)C [1.028, N-[3-chloro-3-oxo-4,4,6,6-tetramethyl-2-(2-methyl-6-trifluoromethyl-pyridine-3-carbonyl)-cyclohex-2-en-ylidene]-vinylsulfonamide] | 1 | 1 | 1 | 1 | 3 | 1 | 2 | 1 | 1 | 2 | 2 | 1 | 1 | 1 | 1 | 1
Cc1nc(C(F)(F)F)ccc1C(=O)C1=C(Cl)C(C)(C)C(=O)C(C)(C)C1=NS(C)(=O)=O [1.001, N-[3-chloro-4,4,6,6-tetramethyl-2-(2-methyl-6-trifluoromethyl-pyridine-3-carbonyl)-5-oxo-cyclohex-2-en-ylidene]-methanesulfonamide] | – | – | – | – | – | – | – | – | 2 | 2 | 1 | 2 | 1 | 1 | 1 | 2
CSC1=C(C(=O)c2ccc(C(F)(F)F)nc2C)C(=NS(=O)(=O)c2ccccc2)C(C)(C)C(=O)C1(C)C [1.079] | 1 | 1 | 1 | 1 | 1 | 1 | 2 | 1 | 2 | 2 | 2 | 1 | 2 | 2 | 2 | 1

From patent US20040192910A1, “Sulfonylamino derivatives useful as herbicides” (priority 2001, published 2004)
